Reference: ChEMBL document CHEMBL3045653, “A novel amino acid substitution Ala-122-Tyr in ALS confers high-level and broad resistance across ALS-inhibiting herbicides” (Pest Manag Sci, 2012)
pIC50: −log10 of the molar value. Active and inactive are the calls of the source. The rule behind the calls is not given here.

Key:
Raphanus raphanistrum [1] = assay: Herbicidal activity against two to three leaf stage ALS-herbicide-susceptible Raphanus raphanistrum WARR7 (wild radish) assessed as reduction in survival measured 3 weeks after compound treatment; assay type: functional
Acetolactate synthase [2] = target: T1, Acetolactate synthase (Raphanus raphanistrum, UniProt J7HAW4); assay: Inhibition of ALS in ALS-herbicide-susceptible Raphanus raphanistrum […] (wild radish); settings: pooled result: one value given for 2 cell lines, strains, targets or settings; read-out: I50
T1 sequence (J7HAW4 whole entry): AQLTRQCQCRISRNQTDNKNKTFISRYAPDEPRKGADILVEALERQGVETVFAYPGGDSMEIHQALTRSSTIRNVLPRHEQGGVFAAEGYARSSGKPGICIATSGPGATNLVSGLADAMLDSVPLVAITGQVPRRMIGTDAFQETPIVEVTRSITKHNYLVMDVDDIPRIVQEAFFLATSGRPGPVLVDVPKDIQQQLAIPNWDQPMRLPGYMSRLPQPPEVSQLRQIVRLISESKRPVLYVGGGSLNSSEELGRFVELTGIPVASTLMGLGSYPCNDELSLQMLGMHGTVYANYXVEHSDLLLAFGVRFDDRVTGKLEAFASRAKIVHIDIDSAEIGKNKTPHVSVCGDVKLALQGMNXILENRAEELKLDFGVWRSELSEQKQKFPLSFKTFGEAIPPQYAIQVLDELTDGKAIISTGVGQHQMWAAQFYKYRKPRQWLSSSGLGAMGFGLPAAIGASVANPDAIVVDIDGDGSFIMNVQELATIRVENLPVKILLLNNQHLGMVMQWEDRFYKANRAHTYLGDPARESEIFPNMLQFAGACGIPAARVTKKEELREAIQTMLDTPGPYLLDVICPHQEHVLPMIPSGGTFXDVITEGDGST

Raphanus raphanistrum [3] = assay: Herbicidal activity against two to three leaf stage ALS-herbicide-resistant Raphanus raphanistrum WARR30 (wild radish) expressing ALS Ala122Tyr mutant assessed as reduction in dry weight of above-ground biomass measured 3 weeks after compound treatment; assay type: functional
Acetolactate synthase [4] = target: Acetolactate synthase (Raphanus raphanistrum, UniProt J7HAW4, A122Y); assay: Inhibition of ALS Ala122Tyr mutant in ALS-herbicide-resistant Raphanus raphanistrum WARR30 (wild radish) expressing ALS Ala122Tyr mutant; settings: read-out: I50
Raphanus raphanistrum [5] = assay: Herbicidal activity against two to three leaf stage ALS-herbicide-susceptible Raphanus raphanistrum WARR7 (wild radish) assessed as reduction in dry weight of above-ground biomass measured 3 weeks after compound treatment; assay type: functional
Raphanus raphanistrum [6] = assay: Resistance index, ratio of I50 for ALS Ala122Tyr mutant in ALS-herbicide-resistant Raphanus raphanistrum WARR30 (wild radish) expressing ALS Ala122Tyr mutant to I50 for ALS-herbicide-susceptible Raphanus raphanistrum (wild radish)
Raphanus raphanistrum [7] = assay: Herbicidal activity against two to three leaf stage ALS-herbicide-resistant Raphanus raphanistrum WARR30 (wild radish) expressing ALS Ala122Tyr mutant assessed as reduction in survival measured 3 weeks after compound treatment; assay type: functional
Raphanus raphanistrum [8] = assay: Herbicidal activity against two to three-leaf stage ALS-herbicide-resistant Raphanus raphanistrum WARR30 (wild radish) expressing ALS Ala122Tyr mutant assessed as reduction in survival at 20 g/ha measured 3 weeks after compound treatment; assay type: functional; settings: WARR30, 504 h, read-out: GI
Raphanus raphanistrum [9] = assay: Herbicidal activity against two to three-leaf stage ALS-herbicide-resistant Raphanus raphanistrum WARR30 (wild radish) expressing ALS Ala122Tyr mutant assessed as reduction in survival at 640 g/ha measured 3 weeks after compound treatment; assay type: functional, organism-based
Raphanus raphanistrum [10] = assay: Herbicidal activity against two to three-leaf stage ALS-herbicide-susceptible Raphanus raphanistrum WARR7 (wild radish) assessed as reduction in survival at 0.625 g/ha measured 3 weeks after compound treatment; assay type: functional; settings: WARR7, 504 h, read-out: GI
Raphanus raphanistrum [11] = assay: Herbicidal activity against two to three-leaf stage ALS-herbicide-susceptible Raphanus raphanistrum WARR7 (wild radish) assessed as reduction in survival at 62 g/ha measured 3 weeks after compound treatment; assay type: functional, organism-based
Raphanus raphanistrum [12] = assay: Resistance index, ratio of LD50 for ALS-herbicide-resistant Raphanus raphanistrum WARR30 (wild radish) expressing ALS Ala122Tyr mutant to LD50 for ALS-herbicide-susceptible Raphanus raphanistrum (wild radish) WARR7; assay type: functional
Raphanus raphanistrum [13] = assay: Resistance index, ratio of GR50 for ALS-herbicide-resistant Raphanus raphanistrum WARR30 (wild radish) expressing ALS Ala122Tyr mutant to GR50 for ALS-herbicide-susceptible Raphanus raphanistrum (wild radish) WARR7; assay type: functional
Raphanus raphanistrum [14] = assay: Herbicidal activity against two to three-leaf stage ALS-herbicide-resistant Raphanus raphanistrum WARR30 (wild radish) expressing ALS Ala122Tyr mutant assessed as reduction in survival at 1600 g/ha measured 3 weeks after compound treatment; assay type: functional; settings: WARR30, 504 h, read-out: GI
Raphanus raphanistrum [15] = assay: Herbicidal activity against two to three-leaf stage ALS-herbicide-susceptible Raphanus raphanistrum WARR7 (wild radish) assessed as reduction in survival at 50 g/ha measured 3 weeks after compound treatment; assay type: functional, organism-based
Raphanus raphanistrum [16] = assay: Herbicidal activity against two to three-leaf stage ALS-herbicide-susceptible Raphanus raphanistrum WARR7 (wild radish) assessed as reduction in survival at 0.75 g/ha measured 3 weeks after compound treatment; assay type: functional; settings: WARR7, 504 h, read-out: GI
Raphanus raphanistrum [17] = assay: Herbicidal activity against two to three-leaf stage ALS-herbicide-resistant Raphanus raphanistrum WARR30 (wild radish) expressing ALS Ala122Tyr mutant assessed as reduction in survival at 384 g/ha measured 3 weeks after compound treatment; assay type: functional; settings: WARR30, 504 h, read-out: GI

SMILES	Activity (Raphanus raphanistrum [1])	pIC50 (Acetolactate synthase [2])	Activity (Raphanus raphanistrum [3])	pIC50 (Acetolactate synthase [4])	Activity (Raphanus raphanistrum [5])	Ratio (Raphanus raphanistrum [6])	Activity (Raphanus raphanistrum [7])	LD50 (Raphanus raphanistrum [1]) [g/ha]	GR50 (Raphanus raphanistrum [3]) [g/ha]	GR50 (Raphanus raphanistrum [5]) [g/ha]	LD50 (Raphanus raphanistrum [7]) [g/ha]	Ratio (Raphanus raphanistrum [12])	Ratio (Raphanus raphanistrum [13])	other results
Cc1ccn2nc(S(=O)(=O)Nc3c(F)cccc3F)nc2n1	Active	5.78	inactive	< 4.00	Active	> 60	inactive	–	–	–	–	–	–	–
COc1nc(C)nc(NC(=O)NS(=O)(=O)c2ccccc2Cl)n1 [CHLORSULFURON]	–	–	–	–	–	–	–	<0.625	>640	<0.625	>640	–	–	inhibition of growth at 20 g/ha (Raphanus raphanistrum [8]): 15%; Activity (Raphanus raphanistrum [9]): inactive; inhibition of growth at 0.625 g/ha (Raphanus raphanistrum [10]): 72%
COCc1cnc(C2=NC(C)(C(C)C)C(=O)N2)c(C(=O)O)c1 (centres undefined) [IMAZAMOX]	–	5.32	–	< 4.00	–	> 21	–	11.7	>1600	<6.3	>1600	>137	>256	Activity (Raphanus raphanistrum [11]): Active; inhibition of growth at 1600 g/ha (Raphanus raphanistrum [14]): 20%
CC(C)C1(C)N=C(c2ncccc2C(=O)O)NC1=O (centres undefined) [IMAZAPYR]	–	5.17	–	< 4.00	–	> 14.6	–	<63	486	<63	1000	>16	>7.8	Activity (Raphanus raphanistrum [15]): Active
CCc1cnc(C2=NC(C)(C(C)C)C(=O)N2)c(C(=O)O)c1 (centres undefined) [IMAZETHAPYR]	Active	5.87	inactive	< 3.00	Active	> 741	inactive	–	–	–	–	–	–	–
COc1cc(OC)n2nc(S(=O)(=O)Nc3c(Cl)ccc(C)c3Cl)nc2n1 [METOSULAM]	–	> 9.00	–	4.03	–	> 94500	–	<0.75	>384	<0.75	>384	>512	>512	inhibition of growth at 0.75 g/ha (Raphanus raphanistrum [16]): 95%; inhibition of growth at 384 g/ha (Raphanus raphanistrum [17]): 10%
Cc1cc(C)nc(NC(=O)NS(=O)(=O)c2ccccc2C(=O)O)n1 [SULFOMETURON]	Active	–	inactive	< 4.00	Active	> 4350	inactive	–	–	–	–	–	–	–
